The source of these data is PubChem BioAssay (NCI).

Some test systems named below: SK-MEL-5 melanoma; MDA-N; NCI-H522 lung; OVCAR-4 ovarian; SK-MEL-2 melanoma; SK-MEL-28 melanoma; TK-10 renal; SF-268 CNS; MCF7 breast; SF-295 CNS; SF-539 CNS; RXF 393 renal; SR leukemia; SN12C renal; SNB-19 CNS; T-47D breast; HCT-116 colon.
Common to all, as to experiment: inhibition of tumour cell growth, NCI panel, 48 h

SMILES strings stand for the structures.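 Interpolation was linear, between the two tested concentrations surrounding the appropriate level; five concentrations were tested over 48 hours in 96-well plates. TGI: total growth inhibition.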

As for `CC(C)(C)c1nc2c(o1)C(=O)c1ccccc1C2=O`, the TGI with SK-MEL-5 melanoma worked out at 2.9 µM; in the assay on MDA-N, 0.367 µM; with NCI-H522 lung, 3.85 µM; in the assay on OVCAR-4 ovarian it was 2.44 µM; with SK-MEL-2 melanoma, 1.83 µM; with SK-MEL-28 melanoma, 4.35 µM. In addition, the TGI came out at 11.7 µM in the assay on TK-10 renal; 10.5 µM in the assay with SF-268 CNS; 1.35 µM in the assay on MCF7 breast; 4.25 µM with SF-295 CNS; 3.4 µM in the assay with SF-539 CNS; 5.54 µM in the assay on RXF 393 renal. In addition, the TGI with SR leukemia turned out to be 45 µM; with SN12C renal, 2.29 µM; in the assay with SNB-19 CNS, 9.81 µM; in the assay on T-47D breast, 3.97 µM; in the assay with HCT-116 colon, 2.87 µM.
For `S=C(N/N=C(/c1ccccc1)c1ccccn1)Nc1ccccc1Cl`, the TGI was 2.63 µM with SK-MEL-5 melanoma; 13.6 µM with MDA-N; 1.89 µM in the assay on NCI-H522 lung; 18.2 µM in the assay on OVCAR-4 ovarian; 1.8 µM in the assay on SK-MEL-2 melanoma; 19.1 µM in the assay with SK-MEL-28 melanoma. For the same compound, the TGI was found to be 12.6 µM with TK-10 renal; 13.3 µM in the assay on SF-268 CNS; 6.89 µM with MCF7 breast; 7.29 µM with SF-295 CNS; 6.59 µM in the assay with SF-539 CNS; 4.24 µM in the assay with RXF 393 renal. For the same compound, the TGI in the assay on SR leukemia was determined as 3.04 µM; in the assay with SN12C renal, 14.9 µM; in the assay on SNB-19 CNS, 15.8 µM; in the assay with T-47D breast, 0.857 µM; with HCT-116 colon, 3.44 µM.
With `Cc1ccc(S(=O)(=O)NN=C2CCCCCCCCCCC2)cc1`, the TGI with SK-MEL-5 melanoma, in the assay on MDA-N, in the assay on NCI-H522 lung, in the assay on OVCAR-4 ovarian, with SK-MEL-2 melanoma and with SK-MEL-28 melanoma was greater than 100 µM in each case. The TGI in the assay on TK-10 renal, in the assay with SF-268 CNS, in the assay on MCF7 breast, in the assay with SF-295 CNS, in the assay with SF-539 CNS and in the assay on RXF 393 renal was greater than 100 µM throughout. In addition, the TGI with SR leukemia, in the assay on SN12C renal, in the assay on SNB-19 CNS, with T-47D breast and in the assay on HCT-116 colon was greater than 100 µM each time.
With `N#Cc1c(-c2ccc([N+](=O)[O-])cc2)cc(-c2ccc(Nc3ccnc4cc(C(F)(F)F)ccc34)cc2)nc1N`, the TGI in the assay with SK-MEL-5 melanoma was greater than 83.3 µM; with MDA-N it was 38.3 µM; in the assay with NCI-H522 lung, greater than 100 µM; with OVCAR-4 ovarian, 28.1 µM; with SK-MEL-2 melanoma, greater than 59.7 µM; in the assay with SK-MEL-28 melanoma, 59.8 µM. The TGI in the assay with TK-10 renal was greater than 69.8 µM; with SF-268 CNS, greater than 72 µM; with MCF7 breast, 10.7 µM; with SF-295 CNS it was 37.6 µM; with SF-539 CNS, greater than 63.8 µM; with RXF 393 renal it was 51.7 µM. For the same compound, the TGI with SR leukemia is greater than 20 µM; with SN12C renal, 46.6 µM; in the assay on SNB-19 CNS, 34.7 µM; in the assay on T-47D breast it was 28.8 µM; in the assay on HCT-116 colon, 27.5 µM.
For `CN(C)CCNc1ccc2c(=O)n(CCN(C)C)c(=O)n3c4ccc([N+](=O)[O-])cc4c(=O)c1c23`, the TGI is 2.23 µM in the assay on SK-MEL-5 melanoma; 1.38 µM in the assay with MDA-N; 0.263 µM with NCI-H522 lung; 2.8 µM with OVCAR-4 ovarian; 1.31 µM with SK-MEL-2 melanoma; 2.66 µM with SK-MEL-28 melanoma. The TGI in the assay with TK-10 renal is 7.1 µM; with SF-268 CNS, 3.33 µM; in the assay on MCF7 breast it was 1.04 µM; in the assay with SF-295 CNS, 2.31 µM; with SF-539 CNS it was 1.68 µM; in the assay on RXF 393 renal it was 0.996 µM. Also, the TGI with SR leukemia is 0.581 µM; in the assay with SN12C renal it was 1.56 µM; in the assay with SNB-19 CNS, 4.51 µM; in the assay on T-47D breast, 6.89 µM; in the assay on HCT-116 colon, 1.24 µM.
For the compound `COc1ccc(-c2csc(=Nc3ccccc3)n2CC(O)c2ccc([N+](=O)[O-])cc2)cc1` (stereo unspecified), the TGI with SK-MEL-5 melanoma, in the assay with MDA-N, with NCI-H522 lung, in the assay with OVCAR-4 ovarian, in the assay with SK-MEL-2 melanoma and with SK-MEL-28 melanoma was greater than 100 µM each time. For the same compound, the TGI in the assay on TK-10 renal, in the assay on SF-268 CNS, in the assay with MCF7 breast, in the assay on SF-295 CNS, in the assay on SF-539 CNS and with RXF 393 renal was greater than 100 µM in each case. In addition, the TGI in the assay on SR leukemia, with SN12C renal, in the assay with SNB-19 CNS, in the assay with T-47D breast and in the assay with HCT-116 colon was greater than 100 µM each time.
For the compound `CCCCCNc1nonc1N`, the TGI with SK-MEL-5 melanoma, in the assay with MDA-N, in the assay on NCI-H522 lung, in the assay on OVCAR-4 ovarian, in the assay on SK-MEL-2 melanoma and in the assay on SK-MEL-28 melanoma was greater than 100 µM each time. Moreover, the TGI in the assay with TK-10 renal, in the assay with SF-268 CNS, in the assay with MCF7 breast, in the assay with SF-295 CNS, in the assay on SF-539 CNS and in the assay on RXF 393 renal was greater than 100 µM throughout. Also, the TGI with SR leukemia, in the assay with SN12C renal, in the assay on SNB-19 CNS, with T-47D breast and with HCT-116 colon was greater than 100 µM throughout.
On to `CC(C)(C)c1ccc(-c2nc3ccc([N+](=O)[O-])cc3c(=O)o2)cc1`, for which the TGI with SK-MEL-5 melanoma was 74.9 µM; in the assay on MDA-N it was greater than 100 µM; in the assay on NCI-H522 lung, 40.7 µM; with OVCAR-4 ovarian it was 75.2 µM; in the assay with SK-MEL-2 melanoma, 47 µM; with SK-MEL-28 melanoma it was 97.1 µM. Further, the TGI with TK-10 renal was greater than 100 µM; in the assay on SF-268 CNS it was greater than 100 µM; in the assay on MCF7 breast it was 89.2 µM; in the assay on SF-295 CNS, 76.4 µM; in the assay on SF-539 CNS, 43.9 µM; in the assay on RXF 393 renal, 96.7 µM. Moreover, the TGI is 68.7 µM in the assay with SR leukemia; greater than 100 µM in the assay with SN12C renal; greater than 100 µM with SNB-19 CNS; greater than 100 µM in the assay on T-47D breast; 81.2 µM in the assay with HCT-116 colon.
